The text below walks through data of patent US10975082B2, “Inhibitor of FLT3 kinase and use thereof” (PRECEDO PHARMACEUTICALS CO., LTD, priority 2016, dated 2021).

Data set [1] has as its system MOLM-13, MOLM-14 and MV-4-11 cell lines. In words: Cell cycle distribution by flow cytometry (PI). As to conditions: MOLM-13, MOLM-14 and MV-4-11, 12 or 24 hours; Compound 1 0.01-0.1 μM, AC220 0.1 μM. Format: cell-based, human. (In flow cytometry, cells or beads pass a laser one at a time.)
Another data set has as its system STAT5. As to the kind of experiment: Signaling pathways of FLT3 in cells: STAT5 phosphorylation. Type of data set: cell-based, human. As to conditions: MV-4-11, MOLM-13 and MOLM-14 cells, 4 hours; Compound 1 0.001-0.3 μM, AC220 0.1 μM.
The next data set has as its system MOLM-14 cells. As to the kind of experiment: Nude mouse model harboring subcutaneous tumor. Type of data set: in vivo. As to conditions: 28 days. As to the method: The first day of administration was recorded as day 0, followed by continuous administration for 28 days (FIG. 4).
In another data set the test system is PARP and Caspase 3. As to the kind of experiment: Cell apoptosis, Western Blot of PARP and Caspase 3 cleavage. In general terms: Immunoblotting shows a protein as a band on a membrane.
The subject of the next data set is MOLM-14. In words: Cancer cell proliferation, Cell Titer-Glo, GI50. As to conditions: Homo sapiens; MOLM-14, 72 hours. Type of data set: cell-based. The method, then:
(§1) Compounds of the invention were evaluated for their inhibitory effects on proliferation of cancer cells as well as the selectivity thereof by testing their effects on growth of cancer cells (Table 2).
(§2) In this example the following cells were selected: human acute myeloid leukemia cells MV-4-11 (expressing FLT3[ITD] mutant gene), human acute myeloid leukemia cells MOLM-13 (expressing FLT3[ITD] mutant gene and wild-type FLT3 gene), human acute myeloid leukemia cells MOLM-14 (expressing FLT3[ITD] mutant gene and wild-type FLT3 gene), human acute myeloid leukemia cells OCI-AML3 (expressing FLT3[A680V] mutant gene), human acute myeloid leukemia cells U937 (expressing wild-type FLT3 gene), and mouse pro-B cells BaF3, and the above cells were purchased from ATCC.
(§3) Then the number of viable cells was determined by quantification of ATP in living cells using Cell Titer-Glo® (Promega, the USA) Luminescent Cell Viability Assay kit and thereby GI50 was calculated.

The next data set concerns MV-4-11. In words: Cancer cell proliferation, Cell Titer-Glo, GI50. Format: cell-based. As to conditions: Homo sapiens, MV4-11; MV-4-11, 72 hours. As to the method: as §1, §2, §3
A general note: Cellular ATP, detected with luciferase, serves as a proxy for viable cell number.

Another data set concerns U937. In words: Cancer cell proliferation, Cell Titer-Glo, GI50. Format: cell-based. As to conditions: Homo sapiens, U-937; U937, 72 hours. The method, then:
as §1, §2, §3

Another data set relates to BaF3-FLT3 [ITD + D835Y]. In words: Cell proliferation, Cell Titer-Glo, GI50. Format: cell-based. As to conditions: Mus musculus, Ba/F3 FLT3-ITD, 72 hours. The method, then:
as §1
(§4) Mouse BaF3-FLT3[ITD] (stably expressing FLT3[ITD] mutant activated kinase), mouse tel-BaF3-FLT3-D835Y (stably expressing FLT3[D835Y]mutant activated kinase), mouse tel-BaF3-BMX (stably expressing BMX kinase), mouse tel-FLT3-BaF3 (stably expressing FLT3 kinase), mouse BaF3-FLT3-ITD-D835Y (stably expressing FLT3[ITD+D835Y]mutant activated kinase), mouse BaF3-FLT3-ITD-F691L (stably expressing FLT3[ITD+F691L]mutant activated kinase), mouse tel-cKIT-BaF3 (stably expressing cKIT kinase), mouse BaF3-tel-cKit-N882K (stably expressing cKIT-N882K mutant activated kinase), mouse BaF3-tel-cKit-D816V (stably expressing cKIT-D816V mutant activated kinase), mouse BaF3-tel-cKit-T670I (stably expressing cKIT-T670I mutant activated kinase), mouse TPR-MET-BaF3 (stably expressing MET kinase), mouse tel-BaF3-EGFR (stably expressing EGFR kinase), mouse BaF3-FL-EGFR-L858R (stably expressing EGFR[L858R]mutant activated kinase), mouse tel-BaF3-BLK (stably expressing BLK kinase), mouse tel-JAK1-BaF3 (stably expressing JAK1 kinase) and the like were also used (see Table 2 for details). The above cell lines were all constructed by our laboratory according to the following method: the kinase region sequences of human FLT3/ITD, FLT3 D835Y, BMX, FLT3, FLT3[ITD+D835Y], FLT3[ITD+F691L], cKIT, cKIT [N882K], cKIT [D816V], cKIT [T670I], MET, EGFR, EGFR [L858R], BLK, JAK1, FLT3[K663Q], FLT3[D835V], FLT3[D835H], PDGFRa, PEGFRb, VEGFR2, JAK2, JAK3, ABL were amplified by PCR, and inserted into MSCV-Puro vectors with N-terminal TEL or TPR fragments (purchased from Clontech), respectively. The vectors were stably transfected into mouse BaF3 cells (purchased from ATCC) by means of retrovirus, and the growth factor IL-3 were removed, eventually obtaining cell lines that are transferred protein (FLT3/ITD, FLT3 D835Y, BMX, FLT3, FLT3[ITD D835Y], FLT3[ITD+F691L], cKIT, cKIT [N882K], cKIT [D816V], cKIT [T670I], MET, EGFR, EGFR [L858R], BLK, JAK1, FLT3[K663Q], FLT3[D835V], FLT3[D835H], PDGFRa, PEGFRb, VEGFR2, JAK2, JAK3, ABL)-dependent.
as §3

A further data set relates to BaF3-FLT3 [ITD + F691L]. In words: Cell proliferation, Cell Titer-Glo, GI50. As to conditions: Mus musculus, Ba/F3 FLT3-ITD, 72 hours. Type of data set: cell-based. The method, then: as §1, §4, §3
The test system of a further data set is BaF3-FLT3 [ITD]. As to the kind of experiment: Cell proliferation, Cell Titer-Glo, GI50. Format: cell-based. As to conditions: Mus musculus, Ba/F3 FLT3-ITD, 72 hours. The method, then:
as §1, §4, §3

Another data set deals with BaF3-TEL-BMX. As to the kind of experiment: Cell proliferation, Cell Titer-Glo, GI50. Type of data set: cell-based. As to conditions: Mus musculus, 72 hours. As to the method:
as §1, §4, §3

The test system of the next data set is BaF3-TEL-FLT3 [D835H]. In words: Cell proliferation, Cell Titer-Glo, GI50. Format: cell-based. As to conditions: Mus musculus, 72 hours. As to the method: as §1, §4, §3
Another data set concerns BaF3-TEL-FLT3 [D835V]. As to the kind of experiment: Cell proliferation, Cell Titer-Glo, GI50. Format: cell-based. As to conditions: Mus musculus, 72 hours. As to the method: as §1, §4, §3
The test system of another data set is BaF3-TEL-FLT3 [D835Y]. In words: Cell proliferation, Cell Titer-Glo, GI50. Type of data set: cell-based. As to conditions: Mus musculus, 72 hours. The method, then:
as §1, §4, §3

The next data set relates to BaF3-TEL-FLT3 [K663Q]. As to the kind of experiment: Cell proliferation, Cell Titer-Glo, GI50. Format: cell-based. As to conditions: Mus musculus, 72 hours. The method, then:
as §1, §4, §3

The subject of another data set is BaF3-TEL-FLT3. In words: Cell proliferation, Cell Titer-Glo, GI50. Format: cell-based. As to conditions: Mus musculus; BaF3-TEL-FLT3, 72 hours. The method, then: as §1, §4, §3
Another data set concerns BaF3-TEL-PDGFRa. In words: Cell proliferation, Cell Titer-Glo, GI50. Format: cell-based. As to conditions: Mus musculus, 72 hours. The method, then:
as §1, §4, §3

For a further data set, the system named is BaF3-TEL-PEGFRb. As to the kind of experiment: Cell proliferation, Cell Titer-Glo, GI50. Type of data set: cell-based. As to conditions: Mus musculus, 72 hours. As to the method: as §1, §4, §3
In another data set the test system is BaF3-TEL-cKIT. In words: Cell proliferation, Cell Titer-Glo, GI50. Type of data set: cell-based. As to conditions: Mus musculus, 72 hours. As to the method:
as §1, §4, §3

The subject of another data set is BaF3-TEL-cKit [D816V]. As to the kind of experiment: Cell proliferation, Cell Titer-Glo, GI50. Type of data set: cell-based. As to conditions: Mus musculus, 72 hours. As to the method: as §1, §4, §3
The subject of the next data set is BaF3-TEL-cKit [N882K]. As to the kind of experiment: Cell proliferation, Cell Titer-Glo, GI50. As to conditions: Mus musculus, 72 hours. Format: cell-based. The method, then:
as §1, §4, §3

Another data set relates to BaF3-TEL-cKit [T670I]. In words: Cell proliferation, Cell Titer-Glo, GI50. Type of data set: cell-based. As to conditions: Mus musculus, 72 hours. As to the method:
as §1, §4, §3

In another data set the test system is BaF3. As to the kind of experiment: Cell proliferation, Cell Titer-Glo, GI50. As to conditions: Mus musculus; BaF3, 72 hours. Format: cell-based. As to the method:
as §1, §2, §3

What is called GI50 is the concentration giving 50% growth inhibition.

Structures are written as SMILES.

Excerpt for PARP and Caspase 3: Western Blot was used to detect the effects of different concentrations of compounds on protein cleavage of the DNA repairase poly(ADP-ribose) polymerase (PARP) and Caspase (cysteinyl aspartate-specific proteinase) 3, wherein glyceraldehyde-3-phosphate dehydrogenase (GAPDH) was used as the internal standard protein.

On to `CC(C)(C)c1cc(NC(=O)Nc2ccc(-c3cn4c(n3)sc3cc(OCCN5CCOCC5)ccc34)cc2)no1` [AC220, reference compound], for which the cell cycle distribution entry in [1] was “similar”.
As to `CC(C)(C)c1cc(NC(=O)Nc2ccc(-n3nc(-c4ccc(OCCN5CCOCC5)cc4)c4c(N)ncnc43)cc2)no1` [Compound 1, 1-(4-(4-amino-3-(4-(2-morpholinoethoxy)phenyl)-1H-pyrazolo[3,4-d]pyrimidin-1-yl)phenyl)-3-(5-(tert-butyl)isoxazol-3-yl)urea], the “phosphorylation of STAT5” value in the data set with STAT5 was “significant inhibition”. For the same molecule, in data set [1], the cell cycle distribution result is reported as “arrested the cell cycle at phase G0-G1”. The figures for the mice body weight entry in the data set with MOLM-14 cells (3.75 mg/kg daily oral gavage), with MOLM-14 cells (15 mg/kg daily oral gavage) and with MOLM-14 cells ([…] daily oral gavage) were “no significant decrease”, “did not decrease” and “did not decrease”, respectively. For the same molecule, the “cleavage of Caspase 3” value in the data set on PARP and Caspase 3 (MOLM-13, 0.003 μM, 12 hours) is reported as “significant cleavage”. In addition, the “cleavage of the DNA repairase poly(ADP-ribose) polymerase (PARP)” value in the data set with PARP and Caspase 3 (MOLM-13, 0.003 μM, 12 hours) was “significant cleavage”; in the data set on PARP and Caspase 3 (MV-4-11, 24 hours) it was “even more significant”.
Take `CC(=O)N1CCN(Cc2ccc(-c3nn(-c4ccc(NC(=O)Nc5cc(C(C)(C)C)on5)cc4)c4ncnc(N)c34)cc2)CC1` [Compound 21, 1-(4-(3-(4-((4-acetylpiperazin-1-yl)methyl)phenyl)-4amino-1H-pyrazolo[3,4-d]pyrimidin-1-yl)phenyl)-3-(5-(tert-butyl)isoxazol-3-yl)urea]: the 50% growth inhibitory concentration (GI50) in the data set on MOLM-14 is under 0.3 nM; in the data set with MV-4-11, under 0.3 nM; in the data set with U937 it was 2300 nM; with BaF3-FLT3 [ITD + D835Y] it was 59 nM; in the data set with BaF3-FLT3 [ITD + F691L], 120 nM; in the data set with BaF3-FLT3 [ITD] it was under 0.3 nM. Moreover, the 50% growth inhibitory concentration (GI50) is 5300 nM in the data set on BaF3-TEL-BMX; under 0.3 nM with BaF3-TEL-FLT3 [D835H]; 4 nM with BaF3-TEL-FLT3 [D835V]; 9 nM in the data set on BaF3-TEL-FLT3 [D835Y]; 3600 nM in the data set with BaF3-TEL-FLT3 [K663Q]; 1 nM in the data set on BaF3-TEL-FLT3. In addition, the concentration for 50% growth inhibition (GI50) with BaF3-TEL-PDGFRa was determined as 2 nM; in the data set on BaF3-TEL-PEGFRb, 10 nM; in the data set on BaF3-TEL-cKIT, 31 nM; in the data set with BaF3-TEL-cKit [D816V], 1800 nM; with BaF3-TEL-cKit [N882K], 10 nM; in the data set on BaF3-TEL-cKit [T670I] it was 4 nM. In the data set with BaF3, the GI50 is about 10000 nM.
As for `CC(C)(C)c1cc(NC(=O)Nc2ccc(-n3nc(-c4ccc(OCCN5CCN(S(C)(=O)=O)CC5)cc4)c4c(N)ncnc43)cc2)no1` [Compound 22, 1-(4-(4-amino-3-(4-(2-(4-(methanesulfonyl)piperazin-1-yl)ethoxy)phenyl)-1H-pyrazolo[3,4-d]pyrimidin-1-yl)phenyl)-3-(5-(tert-butyl)isoxazol-3-yl)urea], the GI50 with MOLM-14 was under 0.3 nM; in the data set with MV-4-11, under 0.3 nM; in the data set on U937, 8500 nM; in the data set with BaF3-FLT3 [ITD + D835Y], 100 nM; with BaF3-FLT3 [ITD + F691L], 39 nM; in the data set on BaF3-FLT3 [ITD], under 0.3 nM. For the same molecule, the 50% growth inhibitory concentration (GI50) was found to be 2000 nM with BaF3-TEL-BMX; 4 nM in the data set with BaF3-TEL-FLT3 [D835H]; 17 nM in the data set on BaF3-TEL-FLT3 [D835V]; 20 nM in the data set with BaF3-TEL-FLT3 [D835Y]; 3800 nM in the data set with BaF3-TEL-FLT3 [K663Q]; 1 nM in the data set on BaF3-TEL-FLT3. Moreover, the GI50 in the data set on BaF3-TEL-PDGFRa was determined as 2 nM; in the data set with BaF3-TEL-PEGFRb, 12 nM; in the data set with BaF3-TEL-cKIT, 40 nM; in the data set on BaF3-TEL-cKit [D816V], 2200 nM; in the data set on BaF3-TEL-cKit [N882K], 15 nM; in the data set on BaF3-TEL-cKit [T670I], 13 nM. Besides, halving of growth with BaF3 (GI50) required 6500 nM.
